{
  "source": "patent US20220370467A1",
  "about": "“USING OF A PPAR-DELTA AGONIST IN THE TREATMENT OF KIDNEY DISEASE” (Reneo Pharmaceuticals, Inc., priority 2019, published 2022)",
  "key": {"[1]": {"molecular_target": "T1, FXR (Homo sapiens, UniProt Q96RI1)", "T1 sequence (Q96RI1 1-486)": "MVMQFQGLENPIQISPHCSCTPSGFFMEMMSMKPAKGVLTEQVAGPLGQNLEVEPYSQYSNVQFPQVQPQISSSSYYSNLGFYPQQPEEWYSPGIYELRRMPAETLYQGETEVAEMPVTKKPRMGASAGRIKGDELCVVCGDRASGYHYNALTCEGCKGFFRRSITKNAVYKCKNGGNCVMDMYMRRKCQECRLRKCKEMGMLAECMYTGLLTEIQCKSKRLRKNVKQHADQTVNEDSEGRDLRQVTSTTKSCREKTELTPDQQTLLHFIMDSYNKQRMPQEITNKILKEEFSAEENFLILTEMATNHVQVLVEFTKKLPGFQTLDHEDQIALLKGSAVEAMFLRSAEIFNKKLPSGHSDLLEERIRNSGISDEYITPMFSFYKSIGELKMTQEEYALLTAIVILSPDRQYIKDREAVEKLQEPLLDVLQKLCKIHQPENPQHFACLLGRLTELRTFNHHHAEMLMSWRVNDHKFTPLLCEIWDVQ", "experiment": "activity on nuclear receptor FXR"}, "[2]": {"molecular_target": "T2, LXRβ (Homo sapiens, UniProt P55055)", "T2 sequence (P55055 1-460)": "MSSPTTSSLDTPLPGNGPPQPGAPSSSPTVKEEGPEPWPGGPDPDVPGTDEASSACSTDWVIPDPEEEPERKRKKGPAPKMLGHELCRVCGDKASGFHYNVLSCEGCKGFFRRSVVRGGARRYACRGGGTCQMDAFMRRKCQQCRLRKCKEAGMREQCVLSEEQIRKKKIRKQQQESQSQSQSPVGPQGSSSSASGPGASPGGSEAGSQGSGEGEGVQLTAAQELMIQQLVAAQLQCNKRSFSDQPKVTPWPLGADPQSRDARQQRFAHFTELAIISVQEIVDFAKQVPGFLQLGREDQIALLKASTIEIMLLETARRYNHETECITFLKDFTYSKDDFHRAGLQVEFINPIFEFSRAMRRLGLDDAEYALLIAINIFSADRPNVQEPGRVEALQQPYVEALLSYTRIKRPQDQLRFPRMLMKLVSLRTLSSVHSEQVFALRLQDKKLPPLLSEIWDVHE", "experiment": "activity on nuclear receptor LXRβ"}, "[3]": {"tested_on": "inbred 129S1 Col4a3−/− mice", "experiment": "Mouse Alport model of kidney fibrosis, Study 2", "type": "in vivo", "source_text": "Mice with mutations in one of the collagen IV genes of glomerular basement membrane collagen, Collagen IV-α3/α4/α5, have defects in glomerular function with development of kidney fibrosis. These mice develop renal dysfunction and die prematurely of renal failure with specific timing dependent on the strain background upon which the mutation is present.\nGeneration of Col4a3^−/−mice was as described in Miner, J. H., and Sanes, J. R. (1996), J. Cell Biol. 135:1403-1413. Studies of Compound 1 efficacy in Alport models of kidney fibrosis were performed using mice on two different strain backgrounds. Study 1 used B 6129S1 F1 hybrid Alport mice that usually reach end stage renal disease (ESRD) at about 17 to 19 weeks. These were generated by crosses between C57BL6/J (B 6) and 129S1/Sv1mJ (129S1) Alport mice. Study 2 used inbred 129S1 Col4a3^−/− mice, which usually reach ESRD at about 11 to 13 weeks. […]\nUrine and blood samples were collected at the time points of 12, 15, and 17-weeks of age for B6129S1 hybrid Col4a3^+/−, −/− mice and at 8 and 10-weeks of age for inbred 129S1 Col4a3^−/− mice. Urinary protein concentration was determined by Bradford assay (Cat. 5000006, Bio-Rad) and comparison with bovine serum albumin standards. Urinary creatinine was measured by QuantiChrom™ Creatinine Assay Kit (Cat.DICT-500, BioAssay systems) and used to normalize the amount of urine. Blood urea nitrogen (BUN) levels were measured by QuantiChrom™ Urea Assay Kit (Cat.DUR2-100, BioAssay systems). Urine and blood samples were stored at −20° C. and −80° C. respectively after collection and subsequently analyzed.\nFor biochemistry, kidneys were collected from 15 and 17-week old B 6129S1 hybridCol4a3^+/−, −/− mice; and from 8 and 10-week old inbred 129S1 Col4a3^−/− mice. […] Protein concentration was measured by BCA assays (Cat. 23227, ThermoFisher). […]\nAll data are presented as mean±SEM. Statistical significance was determined by Oneway ANOVA with Dunnett's multiple comparison for more than three group comparison and Student's t test for two group comparison. […]"}, "[4]": {"details": "3 or 10 mg/kg i.p. once a day, samples at 8 and 10-weeks of age, data not shown"}},
  "data": [
    {"smiles": "Cc1cc(OC/C=C(/c2ccc(F)cc2)c2ccc(C#CCN3CCOCC3)cc2)ccc1OCC(=O)O", "note": "[Compound 1, (E)-[4-[3-(4-Fluorophenyl)-3-[4-[3-(morpholin-4-yl)propynyl]phenyl]allyloxy]-2-methyl-phenoxy]acetic acid]", "values": [
      {"measurement": "activity on FXR", "setting": "[1]", "result": "did not show any"},
      {"measurement": "activity on LXRβ", "setting": "[2]", "result": "did not show any"},
      {"measurement": "kidney dysfunction", "setting": "[3]; 3 or 10 mg/kg i.p. once a day from 4 to 10-weeks of age", "result": "did not attenuate"},
      {"measurement": "BUN", "setting": "[3]; [4]", "result": "did not result in any significant reduction"},
      {"measurement": "proteinuria", "setting": "[3]; [4]", "result": "did not result in any significant reduction"}
    ]}
  ]
}
